Results taken from article PMC5218480 (PLoS ONE, 2017).

System: MV-4-11 cells
Assay: Gene expression microarray analysis (Affymetrix PrimeView) and GSEA
Type: cell-based, human
Parameters: RFU PODN (11730768_x_at) / Fold change /veh PODN (11730768_x_at) / RFU LINC00158 (11744669_a_at) / Fold change /veh LINC00158 (11744669_a_at) / RFU DUSP10 (11751237_a_at) / Fold change /veh DUSP10 (11751237_a_at) / RFU ID3 (11757404_x_at) / Fold change /veh ID3 (11757404_x_at) / RFU PLEKHG5 (11737974_s_at) / Fold change /veh PLEKHG5 (11737974_s_at) / RFU LRRC4B (11730491_at) / Fold change /veh LRRC4B (11730491_at) / RFU GIMAP4 (11747438_a_at) / Fold change /veh GIMAP4 (11747438_a_at) / RFU KRT8 (11758183_x_at) / Fold change /veh KRT8 (11758183_x_at) / RFU CNN1 (11734310_a_at) / Fold change /veh CNN1 (11734310_a_at) / RFU VPS37D (11726825_at) / Fold change /veh VPS37D (11726825_at) / RFU C10orf10 (11716522_x_at) / Fold change /veh C10orf10 (11716522_x_at) / RFU KIR2DL2 /// KIR2DL4 /// KIR2DL5A /// KIR2DL5B /// KIR2DS1 /// KIR2DS2 /// KIR2DS3 /// KIR2DS4 /// KIR3DL3 /// KIR3DL3 /// KIR3DS1 (11738374_at) / Fold change /veh KIR2DL2 /// KIR2DL4 /// KIR2DL5A /// KIR2DL5B /// KIR2DS1 /// KIR2DS2 /// KIR2DS3 /// KIR2DS4 /// KIR3DL3 /// KIR3DL3 /// KIR3DS1 (11738374_at) / RFU C1QL1 (11718748_at) / Fold change /veh C1QL1 (11718748_at) / RFU TMPRSS4 (11747572_a_at) / Fold change /veh TMPRSS4 (11747572_a_at) / RFU HAMP (11756126_x_at) / Fold change /veh HAMP (11756126_x_at) / RFU RNFT2 (11725882_a_at) / Fold change /veh RNFT2 (11725882_a_at) / RFU NR4A2 (11747474_a_at) / Fold change /veh NR4A2 (11747474_a_at) / RFU ABCC12 (11746883_a_at) / Fold change /veh ABCC12 (11746883_a_at) / RFU TMEM136 (11760407_x_at) / Fold change /veh TMEM136 (11760407_x_at) / RFU CLDN22 /// WWC2 (11732394_at) / Fold change /veh CLDN22 /// WWC2 (11732394_at) / RFU HLA-DPB1 (11760878_x_at) / Fold change /veh HLA-DPB1 (11760878_x_at) / RFU SPINT1 (11716480_a_at) / Fold change /veh SPINT1 (11716480_a_at) / RFU GAP43 (11754022_s_at) / Fold change /veh GAP43 (11754022_s_at) / RFU A4GNT (11735810_at) / Fold change /veh A4GNT (11735810_at) / RFU PRB3 (11715151_x_at) / Fold change /veh PRB3 (11715151_x_at) / RFU TUBB4B (11761932_at) / Fold change /veh TUBB4B (11761932_at) / RFU CAPN14 (11732068_a_at) / Fold change /veh CAPN14 (11732068_a_at) / RFU TMCC2 (11721928_a_at) / Fold change /veh TMCC2 (11721928_a_at) / RFU IRGQ (11745062_a_at) / Fold change /veh IRGQ (11745062_a_at) / RFU FAM174B (11720279_a_at) / Fold change /veh FAM174B (11720279_a_at) / RFU TMPRSS4 (11748680_a_at) / Fold change /veh TMPRSS4 (11748680_a_at) / RFU FAM212B (11763350_a_at) / Fold change /veh FAM212B (11763350_a_at) / RFU PLEKHG5 (11743358_a_at) / Fold change /veh PLEKHG5 (11743358_a_at) / RFU ZSCAN30 (11745921_a_at) / Fold change /veh ZSCAN30 (11745921_a_at) / RFU CMKLR1 (11741424_a_at) / Fold change /veh CMKLR1 (11741424_a_at) / RFU LOC101060620 /// MAPK8IP1 (11723275_at) / Fold change /veh LOC101060620 /// MAPK8IP1 (11723275_at) / RFU SPTSSB (11747773_x_at) / Fold change /veh SPTSSB (11747773_x_at) / RFU PRSS12 (11739890_at) / Fold change /veh PRSS12 (11739890_at) / RFU BIN1 (11741810_x_at) / Fold change /veh BIN1 (11741810_x_at) / RFU WNT11 (11732464_a_at) / Fold change /veh WNT11 (11732464_a_at) / RFU C10orf10 (11716521_a_at) / Fold change /veh C10orf10 (11716521_a_at) / RFU C5orf56 (11738089_at) / Fold change /veh C5orf56 (11738089_at) / RFU CYB561 (11721691_x_at) / Fold change /veh CYB561 (11721691_x_at) / RFU ANKRD19P (11752326_a_at) / Fold change /veh ANKRD19P (11752326_a_at) / RFU OR2T12 /// OR2T33 /// OR2T8 (11738714_s_at) / Fold change /veh OR2T12 /// OR2T33 /// OR2T8 (11738714_s_at) / RFU VCAN (11748164_a_at) / Fold change /veh VCAN (11748164_a_at) / RFU JSRP1 (11732532_at) / Fold change /veh JSRP1 (11732532_at) / RFU KRTAP10-11 (11738290_x_at) / Fold change /veh KRTAP10-11 (11738290_x_at) / RFU MYO3A (11730013_a_at) / Fold change /veh MYO3A (11730013_a_at) / RFU EBF3 (11725865_a_at) / Fold change /veh EBF3 (11725865_a_at) / RFU CAMK2N1 (11719241_x_at) / Fold change /veh CAMK2N1 (11719241_x_at) / RFU C5orf56 (11738088_a_at) / Fold change /veh C5orf56 (11738088_a_at) / RFU OLFML3 (11715873_a_at) / Fold change /veh OLFML3 (11715873_a_at) / RFU LOC100653217 /// NTM (11731650_a_at) / Fold change /veh LOC100653217 /// NTM (11731650_a_at) / RFU MAPK11 (11762145_a_at) / Fold change /veh MAPK11 (11762145_a_at) / RFU FIZ1 (11724087_x_at) / Fold change /veh FIZ1 (11724087_x_at) / RFU OASL (11726364_x_at) / Fold change /veh OASL (11726364_x_at) / RFU SOX15 (11748057_x_at) / Fold change /veh SOX15 (11748057_x_at) / RFU CD79A (11719716_a_at) / Fold change /veh CD79A (11719716_a_at) / RFU HIST1H1D (11736915_at) / Fold change /veh HIST1H1D (11736915_at) / RFU CASKIN2 (11723855_a_at) / Fold change /veh CASKIN2 (11723855_a_at) / RFU LOC730098 (11760151_x_at) / Fold change /veh LOC730098 (11760151_x_at) / RFU OR4N2 (11742367_at) / Fold change /veh OR4N2 (11742367_at) / RFU PRRT2 (11749266_a_at) / Fold change /veh PRRT2 (11749266_a_at) / RFU SNX32 (11753110_a_at) / Fold change /veh SNX32 (11753110_a_at) / RFU CDHR5 (11726645_a_at) / Fold change /veh CDHR5 (11726645_a_at) / RFU RCAN1 (11760418_a_at) / Fold change /veh RCAN1 (11760418_a_at) / RFU FAM167A (11723789_a_at) / Fold change /veh FAM167A (11723789_a_at) / RFU FAM26E (11764081_at) / Fold change /veh FAM26E (11764081_at) / RFU ISYNA1 (11749810_s_at) / Fold change /veh ISYNA1 (11749810_s_at) / RFU ACY1 (11761880_at) / Fold change /veh ACY1 (11761880_at) / RFU 11764098_at / Fold change /veh 11764098_at / RFU SAMD14 (11745864_x_at) / Fold change /veh SAMD14 (11745864_x_at) / RFU NPB (11741838_a_at) / Fold change /veh NPB (11741838_a_at) / RFU TMPRSS6 (11731388_a_at) / Fold change /veh TMPRSS6 (11731388_a_at) / RFU KRTAP10-2 (11738614_at) / Fold change /veh KRTAP10-2 (11738614_at) / RFU ARHGAP8 /// PRR5-ARHGAP8 (11727945_x_at) / Fold change /veh ARHGAP8 /// PRR5-ARHGAP8 (11727945_x_at) / RFU KRTAP5-7 /// NADSYN1 (11734609_at) / Fold change /veh KRTAP5-7 /// NADSYN1 (11734609_at) / RFU RASL12 (11751679_a_at) / Fold change /veh RASL12 (11751679_a_at) / RFU CDKN2B (11736163_a_at) / Fold change /veh CDKN2B (11736163_a_at) / RFU PRF1 (11729649_at) / Fold change /veh PRF1 (11729649_at) / RFU, ZNF638 /// ZNF638-IT1 / Fold change vs veh, ZNF638 /// ZNF638-IT1 / RFU, PANK3 / Fold change vs veh, PANK3 / RFU, SH3YL1 / Fold change vs veh, SH3YL1 / RFU, ZEB2 / Fold change vs veh, ZEB2 / RFU, NRIP1 / Fold change vs veh, NRIP1 / RFU, PTTG1IP / Fold change vs veh, PTTG1IP / RFU, CAPN2 / Fold change vs veh, CAPN2 / RFU, MED14 / Fold change vs veh, MED14 / RFU, SNORA58 / Fold change vs veh, SNORA58 / RFU, C1orf63 / Fold change vs veh, C1orf63 / RFU, LRRFIP1 / Fold change vs veh, LRRFIP1 / RFU, NDUFAF7 / Fold change vs veh, NDUFAF7 / RFU, SLC12A2 / Fold change vs veh, SLC12A2 / RFU, IBTK / Fold change vs veh, IBTK / RFU, ESF1 / Fold change vs veh, ESF1 / Fold change vs veh, TMEM50B / RFU, TAOK1 / Fold change vs veh, TAOK1 / RFU, ACBD3 / Fold change vs veh, ACBD3 / RFU, TMA16 / Fold change vs veh, TMA16 / RFU, RWDD3 / Fold change vs veh, RWDD3 / RFU, BCAT1 / Fold change vs veh, BCAT1 / RFU, EDEM3 / Fold change vs veh, EDEM3 / RFU, TMEM33 / Fold change vs veh, TMEM33 / RFU, WDR75 / Fold change vs veh, WDR75 / RFU, AHCTF1 / Fold change vs veh, AHCTF1 / RFU, TFRC / Fold change vs veh, TFRC / RFU, ZDHHC17 / Fold change vs veh, ZDHHC17 / RFU, NOM1 / Fold change vs veh, NOM1 / RFU, ARL8B / Fold change vs veh, ARL8B / RFU, ZBTB11 / Fold change vs veh, ZBTB11 / RFU, TAMM41 / Fold change vs veh, TAMM41 / RFU, KIAA1704 /// LOC100996395 / Fold change vs veh, KIAA1704 /// LOC100996395 / RFU, ING1 / Fold change vs veh, ING1 / RFU, TRMT61B / Fold change vs veh, TRMT61B / RFU, FUBP3 / Fold change vs veh, FUBP3 / RFU, TP53 / Fold change vs veh, TP53 / RFU, TNKS2 / Fold change vs veh, TNKS2 / RFU, ZFP14 / Fold change vs veh, ZFP14 / RFU, ACTR2 / Fold change vs veh, ACTR2 / RFU, PPP3R1 / Fold change vs veh, PPP3R1 / RFU, PIK3R1 / Fold change vs veh, PIK3R1 / RFU, HNRNPA1 / Fold change vs veh, HNRNPA1 / RFU, RNF170 / Fold change vs veh, RNF170 / RFU, ZNF28 / Fold change vs veh, ZNF28 / RFU, RNGTT / Fold change vs veh, RNGTT / RFU, OGT / Fold change vs veh, OGT / RFU, BRD1 / Fold change vs veh, BRD1 / RFU, MARS / Fold change vs veh, MARS / RFU, ZNF655 / Fold change vs veh, ZNF655 / RFU, FAHD1 / Fold change vs veh, FAHD1 / RFU, BDP1 / Fold change vs veh, BDP1 / RFU, LRRCC1 / Fold change vs veh, LRRCC1 / RFU, ARID1A / Fold change vs veh, ARID1A / RFU, ZNF146 / Fold change vs veh, ZNF146 / RFU, ZNF330 / Fold change vs veh, ZNF330 / RFU, GPN3 / Fold change vs veh, GPN3 / RFU, C9orf123 / Fold change vs veh, C9orf123 / RFU, N4BP2L2 / Fold change vs veh, N4BP2L2 / RFU, ARFIP1 / Fold change vs veh, ARFIP1 / RFU, FAM179B / Fold change vs veh, FAM179B / RFU, BCL10 / Fold change vs veh, BCL10 / RFU, UHRF1BP1L / Fold change vs veh, UHRF1BP1L / RFU, BET1 / Fold change vs veh, BET1 / RFU, CNOT2 / Fold change vs veh, CNOT2 / RFU, ZNF268 / Fold change vs veh, ZNF268 / Fold change vs veh, ZNF507 / RFU, DGCR2 / Fold change vs veh, DGCR2 / RFU, WDSUB1 / Fold change vs veh, WDSUB1 / Fold change vs veh, HSP90B1 /// MIR3652 / RFU, ADSS / Fold change vs veh, ADSS / RFU, GK / Fold change vs veh, GK / RFU, ZNF148 / Fold change vs veh, ZNF148 / RFU, TAF9 / Fold change vs veh, TAF9 / RFU, SLC1A5 / Fold change vs veh, SLC1A5 / RFU, SLMO2 / Fold change vs veh, SLMO2 / RFU, ABCC4 / Fold change vs veh, ABCC4 / RFU, LOC101060439 /// RAP1B / Fold change vs veh, LOC101060439 /// RAP1B / RFU, RFX7 / Fold change vs veh, RFX7 / RFU, GTPBP10 / Fold change vs veh, GTPBP10 / RFU, CNEP1R1 / Fold change vs veh, CNEP1R1 / RFU, BIVM-ERCC5 /// ERCC5 / Fold change vs veh, BIVM-ERCC5 /// ERCC5 / RFU, ILF3 / Fold change vs veh, ILF3 / RFU 11762660_at / Fold change /veh 11762660_at / RFU VCAN (11757783_s_at) / Fold change /veh VCAN (11757783_s_at) / RFU DDX43 (11728927_at) / Fold change /veh DDX43 (11728927_at) / RFU KRT8 (11758188_x_at) / Fold change /veh KRT8 (11758188_x_at) / RFU NKD1 (11759106_at) / Fold change /veh NKD1 (11759106_at) / RFU SRD5A1 (11742802_a_at) / Fold change /veh SRD5A1 (11742802_a_at) / RFU TPSAB1 /// TPSB2 (11721975_s_at) / Fold change /veh TPSAB1 /// TPSB2 (11721975_s_at) / RFU GSTM3 (11746129_a_at) / Fold change /veh GSTM3 (11746129_a_at) / RFU IL23R (11737362_x_at) / Fold change /veh IL23R (11737362_x_at) / RFU TMEM51 (11727254_a_at) / Fold change /veh TMEM51 (11727254_a_at) / RFU PIWIL2 (11732686_x_at) / Fold change /veh PIWIL2 (11732686_x_at) / RFU ORM1 (11744905_x_at) / Fold change /veh ORM1 (11744905_x_at) / RFU CCDC152 (11743942_at) / Fold change /veh CCDC152 (11743942_at) / RFU ECM1 (11717891_a_at) / Fold change /veh ECM1 (11717891_a_at) / RFU IL23R (11748794_a_at) / Fold change /veh IL23R (11748794_a_at) / RFU TNFAIP8L3 (11732012_x_at) / Fold change /veh TNFAIP8L3 (11732012_x_at) / RFU MBOAT4 (11741988_at) / Fold change /veh MBOAT4 (11741988_at) / RFU 11764193_at / Fold change /veh 11764193_at / RFU TMEM53 (11763286_at) / Fold change /veh TMEM53 (11763286_at) / RFU MAGEB2 (11727129_at) / Fold change /veh MAGEB2 (11727129_at) / RFU TMEM200A (11744735_a_at) / Fold change /veh TMEM200A (11744735_a_at) / RFU CCDC152 (11751479_a_at) / Fold change /veh CCDC152 (11751479_a_at) / RFU FAM211A (11726209_a_at) / Fold change /veh FAM211A (11726209_a_at) / RFU RGS16 (11746705_a_at) / Fold change /veh RGS16 (11746705_a_at) / RFU VCAN (11755009_s_at) / Fold change /veh VCAN (11755009_s_at) / RFU RHOB (11743442_s_at) / Fold change /veh RHOB (11743442_s_at) / RFU RGS16 (11720943_a_at) / Fold change /veh RGS16 (11720943_a_at) / RFU RGS16 (11720944_at) / Fold change /veh RGS16 (11720944_at) / RFU, VPS4B / Fold change vs veh, VPS4B / RFU, CREB1 / Fold change vs veh, CREB1 / RFU, DNAJC13 / Fold change vs veh, DNAJC13 / RFU, GNAQ / Fold change vs veh, GNAQ / RFU, CDK5R1 / Fold change vs veh, CDK5R1 / RFU, ZRANB3 / Fold change vs veh, ZRANB3 / RFU, CUL4A / Fold change vs veh, CUL4A / RFU, CCNY / Fold change vs veh, CCNY / RFU, UFL1 / Fold change vs veh, UFL1 / RFU, COG3 / Fold change vs veh, COG3 / RFU, DIAPH2 / Fold change vs veh, DIAPH2 / RFU, SKA2 / Fold change vs veh, SKA2 / RFU, AFF3 / Fold change vs veh, AFF3 / RFU, LMF1 / Fold change vs veh, LMF1 / RFU, IPO11 / Fold change vs veh, IPO11 / RFU, DFFB / Fold change vs veh, DFFB / RFU, FOXP1 / Fold change vs veh, FOXP1 / RFU, CARD8 / Fold change vs veh, CARD8 / RFU, STRN3 / Fold change vs veh, STRN3 / RFU, ADK / Fold change vs veh, ADK / RFU, RASSF2 / Fold change vs veh, RASSF2 / RFU, WIPF1 / Fold change vs veh, WIPF1 / RFU, LARP1B / Fold change vs veh, LARP1B / RFU, RASA1 / Fold change vs veh, RASA1 / RFU, RB1 / Fold change vs veh, RB1 / RFU, PPFIA1 / Fold change vs veh, PPFIA1 / RFU, MAT2A / Fold change vs veh, MAT2A / RFU, CCT5 / Fold change vs veh, CCT5 / RFU, WDR92 / Fold change vs veh, WDR92 / RFU, CUX1 / Fold change vs veh, CUX1 / RFU, TTC7A / Fold change vs veh, TTC7A / RFU, TMEM135 / Fold change vs veh, TMEM135 / RFU, DEPTOR / Fold change vs veh, DEPTOR / RFU, CPM / Fold change vs veh, CPM / RFU, DNAJB6 / Fold change vs veh, DNAJB6 / RFU, CACNA2D3 / Fold change vs veh, CACNA2D3 / RFU, DTX4 / Fold change vs veh, DTX4 / RFU, TFCP2 / Fold change vs veh, TFCP2 / RFU, GMCL1 /// GMCL1P1 / Fold change vs veh, GMCL1 /// GMCL1P1 / RFU, AEBP2 / Fold change vs veh, AEBP2 / RFU, SNHG1 /// SNORD22 /// SNORD25 /// SNORD26 /// SNORD27 /// SNORD28 /// SNORD29 /// SNORD31 / Fold change vs veh, SNHG1 /// SNORD22 /// SNORD25 /// SNORD26 /// SNORD27 /// SNORD28 /// SNORD29 /// SNORD31 / Fold change (Aza/veh), C12orf56 (ProbeSet 11735607_a_at) / Fold change (ACY-1035/veh), C12orf56 (ProbeSet 11735607_a_at) / Fold change (Aza/veh), FGFR1OP (ProbeSet 11751329_s_at) / Fold change (ACY-1035/veh), FGFR1OP (ProbeSet 11751329_s_at) / Fold change (Aza/veh), VPS36 (ProbeSet 11739960_a_at) / Fold change (ACY-1035/veh), VPS36 (ProbeSet 11739960_a_at) / RFU SYPL1 (11715823_x_at) / Fold change /veh SYPL1 (11715823_x_at) / RFU IGFBP7 (11715501_s_at) / Fold change /veh IGFBP7 (11715501_s_at) / RFU REEP3 (11722064_at) / Fold change /veh REEP3 (11722064_at) / RFU IGLL1 (11728026_x_at) / Fold change /veh IGLL1 (11728026_x_at): dose or concentration left out as unconfirmed
Settings: MV-4-11 cells, 48 hours

Compound: Nc1ccc(-c2cccs2)cc1NC(=O)c1ccc2c(c1)cc(C1CC1)n2CCN1CCOCC1 [ACY-1035]
- RFU ZSCAN30 (11745921_a_at): 7.88 RFU
